One assay addresses T1, CYP26A (P450RAI-1) (Homo sapiens, UniProt O43174).
T1 construct: expressed in transfected cells; host or cells: HeLa
T1 sequence (O43174 1-497): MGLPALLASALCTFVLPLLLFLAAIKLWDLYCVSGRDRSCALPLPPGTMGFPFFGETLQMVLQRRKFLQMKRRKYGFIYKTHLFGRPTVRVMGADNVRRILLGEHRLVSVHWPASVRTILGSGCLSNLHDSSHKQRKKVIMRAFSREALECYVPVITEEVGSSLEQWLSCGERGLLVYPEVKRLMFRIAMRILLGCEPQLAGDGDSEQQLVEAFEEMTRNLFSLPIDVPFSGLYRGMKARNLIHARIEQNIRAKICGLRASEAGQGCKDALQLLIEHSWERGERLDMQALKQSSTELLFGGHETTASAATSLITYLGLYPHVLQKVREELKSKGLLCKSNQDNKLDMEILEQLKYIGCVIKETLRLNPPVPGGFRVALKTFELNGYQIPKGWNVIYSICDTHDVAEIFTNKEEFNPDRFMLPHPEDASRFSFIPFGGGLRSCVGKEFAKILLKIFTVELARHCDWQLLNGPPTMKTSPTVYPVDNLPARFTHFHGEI
Put plainly: Cell-based inhibition of RA metabolism in CYP26A stably transfected HeLa cells. The settings on record: stably transfected HeLa cells, [3H]-RA, 3 hours at 37° C.; read-out: P450RAI-1 Whole cell IC50. On the procedure: (§1) In brief, CYP26A or CYP26B can be stably transfected into HeLa cells. Exponentially growing cells are harvested by incubating in trypsin. Cells are then washed and plated in a 48-well plate at 5×10^5 cells in 0.2 ml MEM medium containing 10% FBS and 0.05 μCi [^3H]-RA in the presence or absence of increasing concentrations of the test compounds. The compounds are diluted in 100% DMSO and then added in triplicate wells at either 10, 1 or 0.1 μM final concentration. As a positive control for RA metabolism inhibition, cells are also incubated with ketoconazole at 100, 10 and 1 μM. Cells are incubated for 3 hours at 37 degrees C. The retinoids are then extracted using the procedure of Bligh et al., Canadian Journal of Biochemistry 37: 911-917 (1959), modified by using methylenechloride instead of chloroform. This publication by Bligh et al., is specifically incorporated herein by reference. The water soluble radioactivity is quantified using a β scintillation counter, and IC50 values are determined.
(§2) CYP26A and CYP26B stably transfected HeLa cells were maintained in 100 mm tissue culture dishes in MEM medium containing 10% FBS and 100 μg/ml hygromycin.
(§3) Exponentially growing cells were harvested by incubating in trypsin. Cells were then washed with 1×PBS and plated in a 48-well plate at 5×10^5 cells in 0.2 ml MEM medium containing 10% FBS and 0.05 μCi [^3H]-RA in the presence or absence of increasing concentrations of the test compounds. The compounds were diluted in 100% DMSO and then added to triplicate wells at final concentrations of 10, 1 or 0.1 μM. As a positive control for RA metabolism inhibition, cells were also incubated with ketoconazole at 100, 10 and 1 μM. Cells were incubated for 3 hours at 37° C. The retinoids were then extracted using a modified Bligh and Dyer procedure (Bligh and Dyer, supra (1959)), in which methylene-chloride, as opposed to chloroform, was used, and the aqueous soluble radioactivity quantified using a β-scintillation counter. ID50 values represent the concentration of inhibitor required to inhibit RA metabolism by 50 percent and were derived manually from log-transformed data.

The target in a further assay is T2, CYP26B (P450RAI-2) (Homo sapiens, UniProt Q9NR63).
T2 construct: expressed in transfected cells; host or cells: HeLa
T2 sequence (Q9NR63 1-512): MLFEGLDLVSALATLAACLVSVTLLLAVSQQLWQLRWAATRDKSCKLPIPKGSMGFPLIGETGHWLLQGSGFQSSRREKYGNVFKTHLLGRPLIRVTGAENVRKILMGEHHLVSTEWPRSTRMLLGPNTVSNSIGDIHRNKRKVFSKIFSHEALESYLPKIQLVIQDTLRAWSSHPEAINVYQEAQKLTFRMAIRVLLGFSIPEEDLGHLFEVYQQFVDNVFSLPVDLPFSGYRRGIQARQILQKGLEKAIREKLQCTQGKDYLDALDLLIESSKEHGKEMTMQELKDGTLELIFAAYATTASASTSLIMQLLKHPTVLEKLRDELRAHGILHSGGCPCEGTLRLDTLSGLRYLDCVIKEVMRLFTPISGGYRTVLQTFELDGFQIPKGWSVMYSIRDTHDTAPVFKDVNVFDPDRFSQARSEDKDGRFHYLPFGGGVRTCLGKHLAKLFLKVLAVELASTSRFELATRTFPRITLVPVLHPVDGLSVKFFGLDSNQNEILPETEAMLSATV
Put plainly: Cell-based inhibition of RA metabolism in CYP26B stably transfected HeLa cells. Particulars: stably transfected HeLa cells, [3H]-RA, 3 hours at 37° C.; read-out: P450RAI-2 Whole cell IC50. The protocol: as §1, §2, §3

The target in the next assay is T3, RAR α (Homo sapiens, UniProt P10276).
T3 sequence (P10276 1-462): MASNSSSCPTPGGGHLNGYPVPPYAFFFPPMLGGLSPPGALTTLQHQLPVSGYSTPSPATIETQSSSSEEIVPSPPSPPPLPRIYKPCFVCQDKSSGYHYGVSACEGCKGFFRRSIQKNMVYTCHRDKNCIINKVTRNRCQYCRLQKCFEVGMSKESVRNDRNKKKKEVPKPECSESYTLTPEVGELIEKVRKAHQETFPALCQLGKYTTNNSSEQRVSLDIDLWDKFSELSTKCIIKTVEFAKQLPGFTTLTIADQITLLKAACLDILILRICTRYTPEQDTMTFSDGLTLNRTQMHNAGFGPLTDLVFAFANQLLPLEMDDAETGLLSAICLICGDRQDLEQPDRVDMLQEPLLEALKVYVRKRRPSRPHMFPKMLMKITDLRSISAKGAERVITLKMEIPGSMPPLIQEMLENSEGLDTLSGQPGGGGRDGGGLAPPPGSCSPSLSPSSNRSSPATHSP
Put plainly: RAR α Kd. In kind it is binding. The settings on record: last item of cell EC50/(EFFICACY)/Kd.

Another assay concerns the target T4, RAR β (Homo sapiens, UniProt P10826).
T4 sequence (P10826 1-455): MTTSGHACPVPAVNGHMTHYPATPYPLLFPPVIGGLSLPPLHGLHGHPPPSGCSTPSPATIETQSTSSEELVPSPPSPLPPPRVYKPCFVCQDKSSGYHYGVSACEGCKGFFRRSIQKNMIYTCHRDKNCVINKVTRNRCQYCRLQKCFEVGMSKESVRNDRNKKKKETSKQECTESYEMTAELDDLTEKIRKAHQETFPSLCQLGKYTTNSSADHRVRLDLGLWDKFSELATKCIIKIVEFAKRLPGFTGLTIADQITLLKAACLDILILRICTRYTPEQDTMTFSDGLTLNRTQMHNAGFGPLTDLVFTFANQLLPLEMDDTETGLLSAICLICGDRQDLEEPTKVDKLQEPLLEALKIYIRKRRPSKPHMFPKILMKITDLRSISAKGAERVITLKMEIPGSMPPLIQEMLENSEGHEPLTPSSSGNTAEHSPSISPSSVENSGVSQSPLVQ
Put plainly: RAR β Kd. In kind it is binding. Particulars: last item of cell EC50/(EFFICACY)/Kd.

The target of a further assay is T5, RAR γ (Homo sapiens, UniProt P13631).
T5 sequence (P13631 1-454): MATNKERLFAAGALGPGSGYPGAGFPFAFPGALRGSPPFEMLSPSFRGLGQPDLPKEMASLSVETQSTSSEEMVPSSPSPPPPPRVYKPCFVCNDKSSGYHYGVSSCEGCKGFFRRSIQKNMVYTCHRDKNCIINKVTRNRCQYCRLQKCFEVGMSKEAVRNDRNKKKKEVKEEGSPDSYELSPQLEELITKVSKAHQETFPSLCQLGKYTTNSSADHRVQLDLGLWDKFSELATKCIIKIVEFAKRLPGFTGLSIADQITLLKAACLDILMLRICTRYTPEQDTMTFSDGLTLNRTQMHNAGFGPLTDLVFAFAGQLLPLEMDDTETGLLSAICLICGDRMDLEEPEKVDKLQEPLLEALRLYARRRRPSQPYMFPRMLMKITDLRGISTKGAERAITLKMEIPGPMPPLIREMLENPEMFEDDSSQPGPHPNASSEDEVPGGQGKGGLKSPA
Put plainly: RAR γ Kd. The settings on record: last item of cell EC50/(EFFICACY)/Kd. The format is binding.

As to `C#Cc1cc(C#Cc2ccc(CC(=O)O)c(F)c2)cc(C(=O)OC(C)C)c1` [Compound 61, 3-(4-Carboxymethyl-3-fluoro-phenylethynyl)-5-ethynyl-benzoic acid isopropyl ester], the IC50 came out at 220 nM at CYP26A (P450RAI-1) and 8.1 µM at CYP26B (P450RAI-2). Also, the Kd at RAR α, on RAR β and at RAR γ was over 10 µM each time.

`COc1cc(C#Cc2ccc(C(C)C(=O)O)cc2)cc2c1C(N(C)C1CC1)CCC2(C)C` (stereo not drawn) [Compound 27, 2-{4-[5-(Cyclopropyl-methyl-amino)-4-methoxy-8,8-dimethyl-5,6,7,8-tetrahydro-naphthalen-2-ylethynyl]-phenyl}-propionic acid]: the IC50 is 28 nM on CYP26A (P450RAI-1) and over 10 µM at CYP26B (P450RAI-2). In addition, the Kd was 0.118 µM at RAR α, 1.27 µM at RAR β and over 10 µM on RAR γ.

With `COc1cc(C#Cc2ccc(C(C)(C)C(=O)O)cc2)cc2c1C(N(C)C1CC1)CCC2(C)C` (stereo not drawn) [Compound 28, 2-{4-[5-(Cyclopropyl-methyl-amino)-4-methoxy-8,8-dimethyl-5,6,7,8-tetrahydro-naphthalen-2-ylethynyl]-phenyl}-2-methyl-propionic acid], the IC50 at CYP26A (P450RAI-1) is 250 nM; on CYP26B (P450RAI-2), over 10 µM. Also, the Kd at RAR α was over 10 µM; on RAR β it was over 10 µM; at RAR γ, 4.2 µM.

In the case of `CC(C)c1cc(C#Cc2cccc(/C=C/C(=O)O)c2)cc2c1OC(C)(C)CC2(C)C` [Compound 15, 3-[3-(8-Isopropyl-2,2,4,4-tetramethyl-chroman-6-ylethynyl)-phenyl]-acrylic acid], the IC50 was 600 nM on CYP26A (P450RAI-1) and over 10 µM at CYP26B (P450RAI-2). Moreover, the results for the Kd on RAR α, on RAR β and at RAR γ were 8.9 µM, over 10 µM and over 10 µM, respectively.

For the compound `CN(Cc1cc(C#Cc2ccc(CC(=O)O)cc2)cc2c1OC(C)(C)CC2(C)C)C1CC1` [Compound 6, (4-{8-[(Cyclopropyl-methyl-amino)-methyl]-2,2,4,4-tetramethyl-chroman-6-ylethynyl}phenyl)-acetic acid], the IC50 on CYP26A (P450RAI-1) is 60 nM; at CYP26B (P450RAI-2), 4 µM. Besides, the Kd was 3.41 µM on RAR α, over 10 µM on RAR β and over 10 µM on RAR γ.

Turning to `CN(Cc1cc(C#Cc2ccc(C(C)(C)C(=O)O)cc2)cc2c1OC(C)(C)CC2(C)C)C1CC1` [Compound 9, 2-(4-{8-[(Cyclopropyl-methyl-amino)-methyl]-2,2,4,4-tetramethyl-chroman-6-ylethynyl}-phenyl)-2-methyl-propionic acid], the IC50 on CYP26A (P450RAI-1) was 120 nM; on CYP26B (P450RAI-2), over 10 µM. Besides, the Kd at RAR α, at RAR β and on RAR γ was over 10 µM in each case.

With `CC(C)OC(=O)c1ccc(C#Cc2ccc(C(C)C(=O)O)cc2)cc1CN(C)C1CC1` (stereo not drawn) [Compound 40, 4-[4-(1-Carboxy-ethyl)-phenylethynyl]-2-[(cyclopropyl-methyl-amino)-methyl]-benzoic acid isopropyl ester], the IC50 at CYP26A (P450RAI-1) is 1300 nM; on CYP26B (P450RAI-2), over 10 µM. The Kd at RAR α, on RAR β and at RAR γ was over 10 µM throughout.

With `CN(C1CC1)C1CCC(C)(C)c2cc(NC(=O)Nc3ccc(C(=O)O)cc3)ccc21` (stereo not drawn) [Compound 21, 4-{3-[5-(Cyclopropyl-methyl-amino)-8,8-dimethyl-5,6,7,8-tetrahydro-naphthalen-2-yl]-ureido}-benzoic acid], the figures for the IC50 at CYP26A (P450RAI-1) and at CYP26B (P450RAI-2) were over 10000 nM and 0.7 µM, respectively. In addition, the Kd at RAR α, on RAR β and at RAR γ was over 10 µM in each case.

Take `CC1(C)CC(C)(C)c2cc(C#Cc3ccc(C(C)(C)C(=O)O)cc3)cc(O)c2O1` [Compound 12, 2-[4-(8-Hydroxy-2,2,4,4-tetramethyl-chroman-6-ylethynyl)-phenyl]-2-methyl-propionic acid]: the figures for the IC50 on CYP26A (P450RAI-1) and at CYP26B (P450RAI-2) were 160 nM and over 10 µM, respectively. For the same compound, the Kd at RAR α, on RAR β and at RAR γ was over 10 µM throughout.

What is called IC50 is the concentration that gives 50% inhibition. What is called Kd is the equilibrium constant for the complex coming apart. Low values mean tighter binding, high ones weaker binding.

The record behind these values is patent US7468391B2, “Methods for treating retinoid responsive disorders using selective inhibitors of CYP26A and CYP26B” (Allergan, Inc., priority 2003, dated 2008).
